Source: ChEMBL document CHEMBL1914411, “Synthesis of lipophilic dimeric C-7/C-7-linked ciprofloxacin and C-6/C-6-linked levofloxacin derivatives. Versatile in vitro biological evaluations of monomeric and dimeric fluoroquinolone derivatives as potential antitumor, antibacterial or antimycobacterial agents” (Eur J Med Chem, 2011)
In brackets after ≈: the same amount, converted by molar mass. Activity calls are given as the source filed them. The rule behind the calls is not given here.

Tests used:
[1] = test system: Staphylococcus aureus; assay: Antimicrobial activity against Staphylococcus aureus CIP 4.83 after 18 to 24 hrs by broth microdilution method; format: functional
[2] = test system: Enterococcus hirae; assay: Antimicrobial activity against Enterococcus hirae CIP 5855 after 18 to 24 hrs by broth microdilution method; format: functional
[3] = test system: Pseudomonas aeruginosa; assay: Antimicrobial activity against Pseudomonas aeruginosa CIP 82.118 after 18 to 24 hrs by broth microdilution method; format: functional
[4] = test system: Escherichia coli; assay: Antimicrobial activity against Escherichia coli CIP 53126 after 18 to 24 hrs by broth microdilution method; format: functional
[5] = test system: Staphylococcus aureus; assay: Antimicrobial activity against methicillin-resistant Staphylococcus aureus ATCC 33591 after 18 to 24 hrs by broth microdilution method; format: functional
[6] = test system: Staphylococcus aureus; assay: Antimicrobial activity against methicillin-resistant Staphylococcus aureus ATCC 33592 after 18 to 24 hrs by broth microdilution method; format: functional
[7] = test system: Staphylococcus aureus; assay: Antimicrobial activity against multidrug-resistant Staphylococcus aureus isolate 1 after 18 to 24 hrs by broth microdilution method; format: functional
[8] = test system: Staphylococcus aureus; assay: Antimicrobial activity against multidrug-resistant Staphylococcus aureus isolate 2 after 18 to 24 hrs by broth microdilution method; format: functional
[9] = test system: Mycobacterium tuberculosis; assay: Antimycobacterial activity against Mycobacterium tuberculosis H37Rv assessed as growth inhibition at 0.1 uM after 6 days by MTT colorimetric microassay; format: functional, organism-based

Row | Compound | MBC [1] | MIC [1] | MBC [2] | MIC [2] | MBC [3] | MIC [3] | MBC [4] | MIC [4] | MBC [5] | MIC [5] | MBC [6] | MIC [6] | MBC [7] | MIC [7] | MBC [8] | MIC [8] | growth inhibition (GI) [9]
1 | CC(C)(C)C(=O)N1CCN(c2cc3c(cc2F)c(=O)c(C(=O)O)cn3C2CC2)CC1 | ≤ 0.97 µM | ≤ 0.48 µM | 7.8 µM (≈ 3.24 µg/mL) | 7.8 µM (≈ 3.24 µg/mL) | 250 µM (≈ 104 µg/mL) | 62.5 µM (≈ 26 µg/mL) | 31.2 µM (≈ 13 µg/mL) | 15.6 µM (≈ 6.48 µg/mL) | 0.48 µM (≈ 0.199 µg/mL) | 0.48 µM (≈ 0.199 µg/mL) | 0.48 µM (≈ 0.199 µg/mL) | 0.24 µM (≈ 0.0997 µg/mL) | 500 µM (≈ 208 µg/mL) | 31.2 µM (≈ 13 µg/mL) | 31.2 µM (≈ 13 µg/mL) | 31.2 µM (≈ 13 µg/mL) | inactive
2 | CCCCCCCCCCCCOC(=O)N1CCN(c2cc3c(cc2F)c(=O)c(C(=O)O)cn3C2CC2)CC1 | 125 µM (≈ 68 µg/mL) | 125 µM (≈ 68 µg/mL) | 500 µM (≈ 272 µg/mL) | 62.5 µM (≈ 34 µg/mL) | 125 µM (≈ 68 µg/mL) | 125 µM (≈ 68 µg/mL) | 250 µM (≈ 136 µg/mL) | 125 µM (≈ 68 µg/mL) | – | – | – | – | – | – | – | – | inactive
3 | CCCCCCCCCCCCCC(=O)N1CCN(c2cc3c(cc2F)c(=O)c(C(=O)O)cn3C2CC2)CC1 | 125 µM (≈ 67.7 µg/mL) | 125 µM (≈ 67.7 µg/mL) | 250 µM (≈ 135 µg/mL) | 62.5 µM (≈ 33.9 µg/mL) | 250 µM (≈ 135 µg/mL) | 125 µM (≈ 67.7 µg/mL) | 500 µM (≈ 271 µg/mL) | 125 µM (≈ 67.7 µg/mL) | – | – | – | – | – | – | – | – | inactive
4 | CCCCCCNC(=O)c1cn2c3c(c(N4CCN(C)CC4)c(F)cc3c1=O)OC[C@@H]2C | 250 µM (≈ 111 µg/mL) | 250 µM (≈ 111 µg/mL) | 250 µM (≈ 111 µg/mL) | 125 µM (≈ 55.6 µg/mL) | 250 µM (≈ 111 µg/mL) | 62.5 µM (≈ 27.8 µg/mL) | 500 µM (≈ 222 µg/mL) | 125 µM (≈ 55.6 µg/mL) | – | – | – | – | – | – | – | – | inactive
5 | CCCCCCCCCCCCCCCC(=O)OCC(=O)N1CCN(c2cc3c(cc2F)c(=O)c(C(=O)O)cn3C2CC2)CC1 | 500 µM (≈ 314 µg/mL) | 62.5 µM (≈ 39.2 µg/mL) | 500 µM (≈ 314 µg/mL) | 125 µM (≈ 78.5 µg/mL) | 250 µM (≈ 157 µg/mL) | 125 µM (≈ 78.5 µg/mL) | 500 µM (≈ 314 µg/mL) | 125 µM (≈ 78.5 µg/mL) | – | – | – | – | – | – | – | – | inactive
6 | CCCCCCCCOC(=O)N1CCN(c2cc3c(cc2F)c(=O)c(C(=O)O)cn3C2CC2)CC1 | 62.5 µM (≈ 30.5 µg/mL) | 7.8 µM (≈ 3.8 µg/mL) | 125 µM (≈ 60.9 µg/mL) | 125 µM (≈ 60.9 µg/mL) | 250 µM (≈ 122 µg/mL) | 125 µM (≈ 60.9 µg/mL) | 500 µM (≈ 244 µg/mL) | 125 µM (≈ 60.9 µg/mL) | – | – | – | – | – | – | – | – | inactive
7 | O=C(O)c1cn(C2CC2)c2cc(N3CCN(C(=O)CCCCCCCCCCC(=O)N4CCN(c5cc6c(cc5F)c(=O)c(C(=O)O)cn6C5CC5)CC4)CC3)c(F)cc2c1=O | ≤ 0.97 µM | ≤ 0.12 µM | 500 µM (≈ 428 µg/mL) | 125 µM (≈ 107 µg/mL) | 250 µM (≈ 214 µg/mL) | 62.5 µM (≈ 53.6 µg/mL) | 62.5 µM (≈ 53.6 µg/mL) | 62.5 µM (≈ 53.6 µg/mL) | 3.9 µM (≈ 3.34 µg/mL) | 0.48 µM (≈ 0.411 µg/mL) | 1.9 µM (≈ 1.63 µg/mL) | 0.12 µM (≈ 0.103 µg/mL) | 500 µM (≈ 428 µg/mL) | 125 µM (≈ 107 µg/mL) | 500 µM (≈ 428 µg/mL) | 125 µM (≈ 107 µg/mL) | inactive
8 | CCCCNC(=O)c1cn2c3c(c(N4CCN(C)CC4)c(F)cc3c1=O)OC[C@@H]2C | 125 µM (≈ 52.1 µg/mL) | 125 µM (≈ 52.1 µg/mL) | 250 µM (≈ 104 µg/mL) | 125 µM (≈ 52.1 µg/mL) | 250 µM (≈ 104 µg/mL) | 62.5 µM (≈ 26 µg/mL) | 62.5 µM (≈ 26 µg/mL) | 62.5 µM (≈ 26 µg/mL) | – | – | – | – | – | – | – | – | inactive
9 | CC(=O)OCC(=O)N1CCN(c2cc3c(cc2F)c(=O)c(C(=O)O)cn3C2CC2)CC1 | ≤ 0.97 µM | ≤ 0.97 µM | 15.6 µM (≈ 6.73 µg/mL) | 15.6 µM (≈ 6.73 µg/mL) | 250 µM (≈ 108 µg/mL) | 62.5 µM (≈ 27 µg/mL) | 15.6 µM (≈ 6.73 µg/mL) | 7.8 µM (≈ 3.37 µg/mL) | 3.9 µM (≈ 1.68 µg/mL) | 3.9 µM (≈ 1.68 µg/mL) | 1.9 µM (≈ 0.82 µg/mL) | 0.97 µM (≈ 0.418 µg/mL) | 500 µM (≈ 216 µg/mL) | 125 µM (≈ 53.9 µg/mL) | 125 µM (≈ 53.9 µg/mL) | 125 µM (≈ 53.9 µg/mL) | inactive
10 | O=C(O)c1cn(C2CC2)c2cc(N3CCN(C(=O)COCc4ccccc4)CC3)c(F)cc2c1=O | ≤ 0.24 µM | ≤ 0.12 µM | 7.8 µM (≈ 3.74 µg/mL) | 7.8 µM (≈ 3.74 µg/mL) | 250 µM (≈ 120 µg/mL) | 15.6 µM (≈ 7.48 µg/mL) | 1.9 µM (≈ 0.911 µg/mL) | ≤ 0.97 µM | 0.97 µM (≈ 0.465 µg/mL) | 0.48 µM (≈ 0.23 µg/mL) | 0.97 µM (≈ 0.465 µg/mL) | 0.24 µM (≈ 0.115 µg/mL) | 500 µM (≈ 240 µg/mL) | 125 µM (≈ 59.9 µg/mL) | 125 µM (≈ 59.9 µg/mL) | 62.5 µM (≈ 30 µg/mL) | inactive
11 | O=C(O)c1cn(C2CC2)c2cc(N3CCN(C(=O)CCl)CC3)c(F)cc2c1=O | ≤ 0.97 µM | ≤ 0.97 µM | 3.9 µM (≈ 1.59 µg/mL) | 3.9 µM (≈ 1.59 µg/mL) | 250 µM (≈ 102 µg/mL) | 31.2 µM (≈ 12.7 µg/mL) | ≤ 0.97 µM | ≤ 0.97 µM | – | – | – | – | – | – | – | – | inactive
